The record followed here is US7718808B2, “Thiazole derivatives” (Kyowa Hakko Kirin Co., Ltd., priority 2003, dated 2010).

For the first assay, the target named is T1, Rat Adenosine A2A Receptor (Rattus norvegicus, UniProt P30543).
T1 construct: tissue Nippon SLC (animals); host or cells: rat (SD) corpus striatum membrane homogenate
T1 sequence (P30543 whole entry): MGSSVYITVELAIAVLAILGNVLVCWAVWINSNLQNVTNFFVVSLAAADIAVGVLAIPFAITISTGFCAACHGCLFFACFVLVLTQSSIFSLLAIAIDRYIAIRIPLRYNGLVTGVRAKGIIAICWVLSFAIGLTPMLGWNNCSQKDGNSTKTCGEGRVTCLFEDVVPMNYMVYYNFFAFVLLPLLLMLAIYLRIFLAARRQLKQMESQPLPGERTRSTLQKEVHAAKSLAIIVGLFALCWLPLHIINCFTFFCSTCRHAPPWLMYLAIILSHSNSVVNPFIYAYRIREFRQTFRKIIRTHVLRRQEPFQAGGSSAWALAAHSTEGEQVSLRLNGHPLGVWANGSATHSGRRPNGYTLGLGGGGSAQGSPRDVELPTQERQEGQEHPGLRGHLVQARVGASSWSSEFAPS
Description: Adenosine A2A receptor binding test (3H-CGS21680 binding, rat corpus striatum). The settings on record: test compound 10^−7 mol/L, 25° C., 120 minutes. As to the method: This test was carried but in a similar manner to a Bruns et al's method (Molecular Pharmacology, Vol. 29, p. 331, 1986).
Corpus striatum of rats (SD rat, by Nippon SLC) was suspended in 50 mL of an ice-cooled 50 mmol/L tris(hydroxymethyl)aminomethane hydrochloride (Tris-HCl) buffer (pH 7.7) using a polytron homogenizer (by Kinematica). The resulting homogenate was centrifuged (48,000×g, 20 minutes), and the resulting precipitate was again suspended by adding the same amount of a 50 mmol/L Tris-HCl buffer, followed by centrifugation under the same condition. The resulting final precipitate was suspended by adding a 50 mmol/L Tris-HCl buffer [containing 10 mmol/L magnesium chloride, adenosine deaminase 0.02 units/mg tissue (by Sigma)] so that the tissue concentration was 5 mg (wet weight)/mL.
To 100 μL of the above purified tissue suspension, were added 80 μL (final concentration […]) of tritium-labeled CGS-21680 {^3H-2-[p-(2-carboxyethyl)phenethylamino]-5′-(N-ethylcarboxamido)-adenosine: 40 curies/mmol; by New England Nuclear [The Journal of Pharmacology and Experimental Therapeutics, Vol. 251, p. 888, 1989]} and 20 μL of a test compound solution (10^−7 mol/L; a solution of a test compound in DMSO was diluted with Tris-HCl buffer). The resulting mixture was allowed to stand at 25° C. for 120 minutes, followed by rapid suction filtration through a glass fiber paper filter (GF/C; by Whatman). The filter was immediately washed three times with 200 μL of an ice-cooled 50 mmol/L Tris-HCl buffer. The glass fiber paper filter was transferred into a vial, Microscinti (by Perkin Elmer) was added thereto, and the radioactivity level was measured with Topcount (by Perkin Elmer).
The inhibition rate of the test compound to the adenosine A2A receptor binding (^3H-CGS21680 binding) was calculated according to the following formula.
Amount of total binding means the ^3H-CGS21680 binding radioactivity content in the absence of the test compound. Amount of non-specific binding means the ^3H-CGS21680 binding radioactivity content in the presence of 100 μmol/L cyclopentyladenosine (CPA; by Sigma). Amount of binding in the presence of test compound means the ^3H-CGS21680 binding radioactivity content in the presence of 10^−7 mol/L of the test compound.
With `Cc1ncc(C(=O)Nc2nc(-c3ccco3)c(C(=O)c3ccccn3)s2)cn1` [Compound 228], the “Rat Adenosine A2A Receptor Binding Inhibition rate (%) (10^−7 mol/L)” value is 84%.

`O=C(Nc1nc(-c2ccco2)c(C(=O)C2CCCC2)s1)c1ccncc1` [Compound 431, N-[5-(Cycolopentylcarbonyl)-4-(2-furyl)thiazol-2-yl]-pyridine-4-carboxamide]: the “Rat Adenosine A2A Receptor Binding Inhibition rate (%) (10^−7 mol/L)” value turned out to be 98%.

The assay is the same for the next values; noted with them: test compound 10^−7 mol/L, 25° C., 120 minutes, read-out: Rat Adenosine A2A Receptor Binding Inhibition rate (%) (10^−7 mol/L).
Take `O=C(Nc1nc(-c2ccco2)c(-c2ccncc2)s1)C1CCCCC1` [Compound 4, N-[4-(2-Furyl)-5-(4-pyridyl)thiazol-2-yl]cyclohexanecarboxamide]: the inhibition at 0.1 µM is 95%.

With `O=C(Nc1nc(-c2ccco2)c(-c2ccncc2)s1)c1cccnc1` [Compound 5, N-[4-(2-Furyl)-5-(4-pyridyl)thiazol-2-yl]pyridine-3-carboxamide], the inhibition at 0.1 µM turned out to be 100%.

For the compound `O=C(Nc1nc(-c2ccco2)c(-c2ccncc2)s1)c1ccco1` [Compound 8, N-[4-(2-Furyl)-5-(4-pyridyl)thiazol-2-yl]furan-2-carboxamide], the inhibition at 0.1 µM came out at 100%.

With `O=C(Nc1nc(-c2ccco2)c(-c2ccncc2)s1)c1ccoc1` [Compound 9, N-[4-(2-Furyl)-5-(4-pyridyl)thiazol-2-yl]furan-3-carboxamide], the inhibition at 0.1 µM came out at 100%.

Consider `O=C(Nc1nc(-c2ccco2)c(-c2ccncc2)s1)c1ccc(O)nc1` [Compound 11, N-[4-(2-Furyl)-5-(4-pyridyl)thiazol-2-yl]-2-hydroxypyridine-5-carboxamide], for which the inhibition at 0.1 µM worked out at 100%.

As for `O=C(Nc1nc(-c2ccco2)c(-c2ccncc2)s1)c1ccc(Cn2ccnc2)cc1` [Compound 19, N-[4-(2-Furyl)-5-(4-pyridyl)thiazol-2-yl]-4-(imidazol-1-ylmethyl)benzamide], the inhibition at 0.1 µM worked out at 90%.

For the compound `O=C(Nc1nc(-c2ccco2)c(Cc2ccccc2)s1)c1ccncc1` [Compound 23, N-[5-Benzyl-4-(2-furyl)thiazol-2-yl]pyridine-4-carboxamide], the inhibition at 0.1 µM is 85%.

In the case of `CCOC(=O)c1sc(NC(=O)c2ccncc2)nc1-c1ccco1` [Compound 24, N-(5-(Ethoxycarbonyl)-4-(2-furyl)thiazol-2-yl]pyridine-4-carboxamide], the inhibition at 0.1 µM was found to be 88%.

With `CN1CCN(c2cc(C(=O)Nc3nc(-c4ccco4)c(N4CCOCC4)s3)ccn2)CC1` [Compound 41, N-[4-(2-Furyl)-5-morpholinothiazol-2-yl]-2-(4-methylpiperazin-1-yl)pyridine-4-carboxamide], the inhibition at 0.1 µM is 92%.

Turning to `CS(=O)(=O)c1ccc(N2CCC(C(=O)Nc3nc(-c4ccco4)c(N4CCOCC4)s3)CC2)nc1` [Compound 46, N-[4-(2-Furyl)-5-morpholinothiazol-2-yl]-1-[5-(methanesulfonyl)pyridin-2-yl]piperidine-4-carboxamide], the inhibition at 0.1 µM is 95%.

For the compound `O=C(Nc1nc(-c2ccco2)c(CN2CCSCC2)s1)c1ccncc1` [Compound 87, N-[4-(2-Furyl)-5-(thiomorpholinomethyl)thiazol-2-yl]pyridine-4-carboxamide], the inhibition at 0.1 µM was 100%.

Regarding `O=C(Nc1nc(-c2ccco2)c(CN2CCOCC2)s1)c1cccnc1` [Compound 94, N-[4-(2-Furyl)-5-(morpholinomethyl)thiazol-2-yl]pyridine-3-carboxamide], the inhibition at 0.1 µM worked out at 100%.

Consider `O=C(Nc1nc(-c2ccco2)c(C(=O)c2ccccc2)s1)c1ccncc1` [Compound 99, N-[5-Benzoyl-4-(2-furyl)thiazol-2-yl]pyridine-4-carboxamide], for which the inhibition at 0.1 µM came to 98%.

In the case of `O=C(Nc1nc(-c2ccco2)c(C(=O)c2ccc(F)cc2)s1)c1ccncc1` [Compound 170, N-[5-(4-Fluorobenzoyl)-4-(2-furyl)thiazol-2-yl]pyridine-4-carboxamide], the inhibition at 0.1 µM was found to be 87%.

For the compound `COC(=O)Nc1nc(-c2ccco2)c(C(=O)c2ccccn2)s1` [Compound 249, Methyl N-[4-(2-furyl)-5-(pyridin-2-ylcarbonyl)thiazol-2-yl]carbamate], the inhibition at 0.1 µM turned out to be 85%.
